Experimental data taken from paper PMC3376857 (2012).

Molecular target: HDAC1 (Homo sapiens, UniProt Q13547)
Sequence (Q13547 whole entry): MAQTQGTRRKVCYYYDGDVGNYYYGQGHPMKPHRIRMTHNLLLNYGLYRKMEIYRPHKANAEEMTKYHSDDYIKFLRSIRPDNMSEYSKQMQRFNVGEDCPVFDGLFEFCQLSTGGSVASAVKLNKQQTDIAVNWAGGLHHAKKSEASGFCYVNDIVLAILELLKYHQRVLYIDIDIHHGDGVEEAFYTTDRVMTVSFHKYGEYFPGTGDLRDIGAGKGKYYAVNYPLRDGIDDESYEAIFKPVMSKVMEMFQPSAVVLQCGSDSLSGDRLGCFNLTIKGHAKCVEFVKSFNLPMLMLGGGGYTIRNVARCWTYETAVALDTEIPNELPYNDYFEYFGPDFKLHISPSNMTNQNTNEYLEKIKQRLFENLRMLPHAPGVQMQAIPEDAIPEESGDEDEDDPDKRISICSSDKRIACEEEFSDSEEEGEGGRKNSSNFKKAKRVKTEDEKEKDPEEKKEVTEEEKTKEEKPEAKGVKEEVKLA

CC(/C=C/C(=O)NO)=C\[C@@H](C)C(=O)c1ccc(N(C)C)cc1 [TSA, trichostatin A]
deacetylase assay with immunopurified Flag-HDAC1 and acetylated p53 protein: 1 µM
